Source: paper PMC6162791, “Phoneutria nigriventer Spider Toxin PnTx2-1 (δ-Ctenitoxin-Pn1a) Is a Modulator of Sodium Channel Gating” (Toxins, 2018)
Bridge positions count the residues as written; N and C are the ends. Ends that are not written are not given here.

Columns and labels:
NaV1.1 [1] = molecular target: T1, NaV1.1 (Homo sapiens, UniProt P35498); assay: Two-electrode voltage clamp in Xenopus oocytes, NaV1.1 modulation / concentration-response; format: cell-based, mammalian; conditions: NaV1.1, 1 µM
NaV1.2 = assay: Two-electrode voltage clamp in Xenopus oocytes, NaV1.2 modulation; format: cell-based, mammalian
NaV1.3 = assay: Two-electrode voltage clamp in Xenopus oocytes, NaV1.3 modulation; format: cell-based, mammalian
NaV1.4 = assay: Two-electrode voltage clamp in Xenopus oocytes, NaV1.4 modulation; format: cell-based, mammalian
NaV1.5 [2] = molecular target: T2, NaV1.5 (Homo sapiens, UniProt Q14524); assay: Two-electrode voltage clamp in Xenopus oocytes, NaV1.5 modulation / concentration-response; format: cell-based, mammalian; conditions: NaV1.5, 1 µM
NaV1.6 = assay: Two-electrode voltage clamp in Xenopus oocytes, NaV1.6 modulation; format: cell-based, mammalian
NaV1.8 [3] = molecular target: T3, NaV1.8 (Homo sapiens, UniProt Q9Y5Y9); assay: Two-electrode voltage clamp in Xenopus oocytes, NaV1.8 modulation / concentration-response; format: cell-based, mammalian; conditions: NaV1.8, 1 μM
BgNaV1 [4] = assay: Two-electrode voltage clamp in Xenopus oocytes, BgNaV1 modulation / concentration-response; format: cell-based, Blattella germanica
VdNaV1 = assay: Two-electrode voltage clamp in Xenopus oocytes, VdNaV1 modulation / concentration-response; format: cell-based, Varroa destructor
NaV1.1 [5] = molecular target: T1, NaV1.1; assay: Voltage dependence of activation and steady-state inactivation, NaV1.1; format: cell-based, mammalian; conditions: NaV1.1, 1 µM
NaV1.5 [6] = molecular target: T2, NaV1.5; assay: Current-voltage relationship, activation and steady-state inactivation, NaV1.5; format: cell-based, mammalian
NaV1.8 [7] = molecular target: T3, NaV1.8; assay: Voltage dependence of activation and steady-state inactivation, NaV1.8; format: cell-based, mammalian
BgNaV1 [8] = assay: Voltage dependence of activation and steady-state inactivation, BgNaV1; format: cell-based, Blattella germanica
NaV1.5 [9] = molecular target: T2, NaV1.5; assay: Recovery from inactivation, NaV1.5; format: cell-based, mammalian; conditions: NaV1.5, 1 µM
BgNaV1 [10] = assay: Recovery from fast inactivation, BgNaV1; format: cell-based, Blattella germanica; conditions: BgNaV1, 1 µM
NaV1.5 [11] = molecular target: T2, NaV1.5; format: cell-based, mammalian
BgNaV1 [12] = assay: State-dependence (toxin incubation without depolarizing pulses), BgNaV1; format: cell-based, Blattella germanica; conditions: BgNaV1, 1 µM
NaV channels = assay: NaV channel panel in Xenopus oocytes (ion selectivity, species selectivity); format: cell-based; conditions: presence of toxin, ion selectivity not altered
mice = conditions: cited from earlier work
Source text: Spiders can be considered one of the most successful venomous animals ever to inhabit the planet with over 47,000 species characterized to date. Despite this diversity, no more than 100 spider species have had their venom investigated. With over ten million estimated biologically active peptides in spider venoms, this means that less than 0.01% of spider peptides have been studied, making spider venom an untapped treasure of biologically active compounds with promising discoveries in drug and bioinsecticide development. Phoneutria nigriventer are very ...

PnTx2-6 binding site = conditions: ref [14]; cited from earlier work
Source text: PnTx2-1 shares the highest sequence identity with PnTx2-5 and PnTx2-6, which are also isolated from the Phoneutria nigriventer venom fraction 2 [13]. PnTx2-5 and PnTx2-6 are the best-characterized toxins from the PhTx2 venom fraction. These two toxins share 90% sequence identity, with only five amino acid residues different (Figure 1). […] Both peptides modulate sodium chann ...

T3 sequence (Q9Y5Y9 whole entry): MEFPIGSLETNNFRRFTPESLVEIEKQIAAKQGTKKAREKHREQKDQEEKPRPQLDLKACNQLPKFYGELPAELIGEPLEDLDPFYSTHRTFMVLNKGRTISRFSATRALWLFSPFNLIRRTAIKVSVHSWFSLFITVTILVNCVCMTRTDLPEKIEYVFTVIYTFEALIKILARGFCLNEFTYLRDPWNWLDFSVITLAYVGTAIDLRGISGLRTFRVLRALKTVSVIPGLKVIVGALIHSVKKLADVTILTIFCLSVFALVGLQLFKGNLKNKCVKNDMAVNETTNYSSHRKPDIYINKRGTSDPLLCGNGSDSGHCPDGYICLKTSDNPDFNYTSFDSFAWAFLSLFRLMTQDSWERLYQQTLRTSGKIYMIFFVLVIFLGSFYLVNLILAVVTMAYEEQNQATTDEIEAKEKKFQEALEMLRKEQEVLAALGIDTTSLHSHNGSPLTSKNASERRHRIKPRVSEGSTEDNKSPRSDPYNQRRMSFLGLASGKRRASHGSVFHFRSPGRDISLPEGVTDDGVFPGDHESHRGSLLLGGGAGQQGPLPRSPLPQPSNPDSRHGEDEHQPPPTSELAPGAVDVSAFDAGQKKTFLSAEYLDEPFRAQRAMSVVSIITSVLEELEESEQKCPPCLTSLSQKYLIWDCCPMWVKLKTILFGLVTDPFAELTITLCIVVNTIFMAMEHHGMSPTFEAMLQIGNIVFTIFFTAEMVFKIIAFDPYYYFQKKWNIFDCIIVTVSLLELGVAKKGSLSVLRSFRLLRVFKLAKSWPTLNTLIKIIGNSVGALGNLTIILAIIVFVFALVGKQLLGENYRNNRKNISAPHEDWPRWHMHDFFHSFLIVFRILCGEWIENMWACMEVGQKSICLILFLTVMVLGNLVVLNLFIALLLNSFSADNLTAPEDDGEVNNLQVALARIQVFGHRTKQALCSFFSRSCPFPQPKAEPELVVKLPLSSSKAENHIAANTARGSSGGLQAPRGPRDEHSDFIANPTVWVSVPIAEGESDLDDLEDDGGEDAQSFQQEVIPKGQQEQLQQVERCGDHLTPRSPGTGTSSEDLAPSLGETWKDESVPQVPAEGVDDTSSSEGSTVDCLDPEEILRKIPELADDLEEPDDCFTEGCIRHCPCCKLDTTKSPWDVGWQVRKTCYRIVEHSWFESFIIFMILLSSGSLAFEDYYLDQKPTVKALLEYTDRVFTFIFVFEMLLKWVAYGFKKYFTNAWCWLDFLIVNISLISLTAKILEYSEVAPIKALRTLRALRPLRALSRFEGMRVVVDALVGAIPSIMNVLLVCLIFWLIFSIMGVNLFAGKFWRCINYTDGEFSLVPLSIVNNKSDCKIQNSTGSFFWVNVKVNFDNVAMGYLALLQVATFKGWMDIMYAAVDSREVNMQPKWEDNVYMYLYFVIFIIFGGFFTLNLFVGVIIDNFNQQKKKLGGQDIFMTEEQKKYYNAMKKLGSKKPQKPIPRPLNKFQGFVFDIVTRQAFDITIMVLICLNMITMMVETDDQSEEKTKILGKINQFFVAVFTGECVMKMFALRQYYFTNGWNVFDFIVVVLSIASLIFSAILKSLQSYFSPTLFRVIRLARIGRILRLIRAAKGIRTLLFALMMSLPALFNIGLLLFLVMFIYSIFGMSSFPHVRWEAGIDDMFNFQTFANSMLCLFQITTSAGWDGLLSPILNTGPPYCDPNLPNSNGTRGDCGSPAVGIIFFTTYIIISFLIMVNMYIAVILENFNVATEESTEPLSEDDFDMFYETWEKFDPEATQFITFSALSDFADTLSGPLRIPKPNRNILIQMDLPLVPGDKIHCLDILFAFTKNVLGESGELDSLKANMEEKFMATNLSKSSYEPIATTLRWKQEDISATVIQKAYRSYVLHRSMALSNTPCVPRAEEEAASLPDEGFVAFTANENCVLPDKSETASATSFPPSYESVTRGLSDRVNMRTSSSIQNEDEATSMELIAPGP
T2 sequence (Q14524 whole entry, looked up): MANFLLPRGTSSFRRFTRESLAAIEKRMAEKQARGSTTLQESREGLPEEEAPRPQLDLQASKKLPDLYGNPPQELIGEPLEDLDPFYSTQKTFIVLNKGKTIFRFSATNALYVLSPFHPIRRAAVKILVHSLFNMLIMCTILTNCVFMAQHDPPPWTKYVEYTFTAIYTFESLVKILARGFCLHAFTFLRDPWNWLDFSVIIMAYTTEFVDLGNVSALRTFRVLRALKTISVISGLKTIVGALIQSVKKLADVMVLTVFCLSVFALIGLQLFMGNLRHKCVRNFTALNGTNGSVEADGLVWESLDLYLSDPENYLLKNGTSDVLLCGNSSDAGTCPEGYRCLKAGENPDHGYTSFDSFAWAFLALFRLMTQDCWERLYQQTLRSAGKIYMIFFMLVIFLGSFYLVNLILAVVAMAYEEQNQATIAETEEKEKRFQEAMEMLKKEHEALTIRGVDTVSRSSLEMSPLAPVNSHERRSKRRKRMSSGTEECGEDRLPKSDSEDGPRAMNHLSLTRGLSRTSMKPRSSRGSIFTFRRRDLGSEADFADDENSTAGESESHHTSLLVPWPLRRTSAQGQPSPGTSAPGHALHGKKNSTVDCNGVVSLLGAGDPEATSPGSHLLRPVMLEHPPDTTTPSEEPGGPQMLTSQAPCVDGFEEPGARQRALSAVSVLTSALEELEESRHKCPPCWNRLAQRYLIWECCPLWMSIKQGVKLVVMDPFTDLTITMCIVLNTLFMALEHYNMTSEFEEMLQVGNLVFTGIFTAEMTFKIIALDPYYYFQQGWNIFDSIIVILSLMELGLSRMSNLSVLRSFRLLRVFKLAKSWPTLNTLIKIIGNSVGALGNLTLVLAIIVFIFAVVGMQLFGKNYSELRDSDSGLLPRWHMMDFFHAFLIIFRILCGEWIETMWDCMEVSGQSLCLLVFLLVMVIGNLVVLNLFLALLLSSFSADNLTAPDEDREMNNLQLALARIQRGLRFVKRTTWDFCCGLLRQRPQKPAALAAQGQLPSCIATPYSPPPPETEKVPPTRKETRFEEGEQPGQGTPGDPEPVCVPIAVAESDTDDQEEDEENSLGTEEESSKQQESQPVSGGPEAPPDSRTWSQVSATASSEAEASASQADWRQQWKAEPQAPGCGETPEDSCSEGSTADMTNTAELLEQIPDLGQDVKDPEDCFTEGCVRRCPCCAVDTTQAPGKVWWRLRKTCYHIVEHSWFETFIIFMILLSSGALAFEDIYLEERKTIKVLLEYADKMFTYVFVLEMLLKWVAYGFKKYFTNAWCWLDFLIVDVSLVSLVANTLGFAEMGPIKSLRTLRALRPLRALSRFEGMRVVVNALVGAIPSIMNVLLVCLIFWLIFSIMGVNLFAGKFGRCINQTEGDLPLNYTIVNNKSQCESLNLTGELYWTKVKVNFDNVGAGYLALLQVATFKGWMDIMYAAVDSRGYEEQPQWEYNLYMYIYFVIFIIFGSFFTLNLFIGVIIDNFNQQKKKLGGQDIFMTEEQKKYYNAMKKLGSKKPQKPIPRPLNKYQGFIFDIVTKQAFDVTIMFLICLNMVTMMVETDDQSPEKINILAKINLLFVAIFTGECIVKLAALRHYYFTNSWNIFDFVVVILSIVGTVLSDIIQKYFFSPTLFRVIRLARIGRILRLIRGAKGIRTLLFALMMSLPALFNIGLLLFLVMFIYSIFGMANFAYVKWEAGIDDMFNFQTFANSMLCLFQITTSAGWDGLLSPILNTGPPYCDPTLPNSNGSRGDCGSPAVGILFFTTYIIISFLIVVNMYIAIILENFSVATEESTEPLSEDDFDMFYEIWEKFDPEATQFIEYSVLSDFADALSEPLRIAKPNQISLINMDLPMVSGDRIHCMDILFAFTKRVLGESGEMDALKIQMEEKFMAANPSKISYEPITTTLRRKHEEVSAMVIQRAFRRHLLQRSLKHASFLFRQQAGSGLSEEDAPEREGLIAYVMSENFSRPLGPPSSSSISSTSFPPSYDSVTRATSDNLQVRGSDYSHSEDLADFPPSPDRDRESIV

ATCAGQDKPCKETCDCCGERGECVCALSYEGKYRCICRQGNFLIAWHKLASCK (disulfide 3-17, 10-23, 14-52, 16-37, 25-35) [PnTx2-1]
effect on inactivation (NaV1.1 [1]): slowed the inactivation
effect on channel (NaV1.2; NaV1.2, 1 μM): not affected
activity on channel (NaV1.2; NaV1.2, up to 5 µM, data not shown): no activity
effect on channel (NaV1.3; NaV1.3, 1 μM): not affected
activity on channel (NaV1.3; NaV1.3, up to 5 µM, data not shown): no activity
effect on channel (NaV1.4; NaV1.4, 1 μM): not affected
activity on channel (NaV1.4; NaV1.4, up to 5 µM, data not shown): no activity
effect on inactivation (NaV1.5 [2]): slowed the inactivation
effect on channel (NaV1.6; NaV1.6, 1 μM): not affected
activity on channel (NaV1.6; NaV1.6, up to 5 µM, data not shown): no activity
effect on inactivation (NaV1.8 [3]): slowed the inactivation
effect on inactivation (BgNaV1 [4]; BgNaV1, 1 µM): completely inhibited inactivation of BgNaV1 channels, resulting in sustained non-inactivating currents
EC50 (BgNaV1 [4]; BgNaV1, modulation (current at 30 ms / control peak), Hill fit, Xenopus oocytes, ND96 pH 7.5, 18–22 °C, holding −90 mV, mean ± SEM, n ≥ 3): 91.9 ± 17 nM
effect on inactivation (VdNaV1; VdNaV1, 1 μM): profound effect on the inactivation
EC50 (VdNaV1; VdNaV1, modulation (current at 30 ms / control peak), Hill fit, Xenopus oocytes, ND96 pH 7.5, 18–22 °C, holding −90 mV, mean ± SEM, n ≥ 3): 102 ± 14.7 nM
shift of midpoint of activation (NaV1.1 [5]): the midpoint of activation shifted towards more depolarized potentials
shift of steady-state inactivation curve (NaV1.1 [5]): the steady-state inactivation curves shifted towards more hyperpolarized membrane potentials
window of open probability (NaV1.1 [5]): increased window of open probability
shift of midpoint of activation (NaV1.5 [6]; NaV1.5, 1 µM): the midpoint of activation shifted towards more depolarized potentials
shift of steady-state inactivation curve (NaV1.5 [6]; NaV1.5, 1 µM): the steady-state inactivation curves shifted towards more hyperpolarized membrane potentials
window of open probability (NaV1.5 [6]; NaV1.5, 1 µM): increased window of open probability
V1/2 of activation (NaV1.5 [6]; NaV1.5, 1 µM toxin, control −53.1 ± 0.1, mean ± SEM, n ≥ 3): −45.3 ± 0.1 mV
V1/2 of steady-state inactivation (NaV1.5 [6]; NaV1.5, 1 µM toxin, control −78.4 ± 0.2, mean ± SEM, n ≥ 3): −87.5 ± 0.7 mV
effect on sodium peak current (NaV1.5 [6]; NaV1.5, Figure 2E, Figure 3B and Figure 5A): inhibition of the sodium peak current
modulation of gating kinetics (NaV1.8 [7]; NaV1.8, 1 μM): No relevant modulation of the gating kinetics
V1/2 of activation (NaV1.8 [7]; NaV1.8, 1 µM toxin, control −11.5 ± 0.1, mean ± SEM, n ≥ 3): −11.4 ± 0.1 mV
completeness of steady-state inactivation (BgNaV1 [8]; BgNaV1, 1 µM): steady-state inactivation became incomplete after toxin addition
shift of activation midpoint and steady-state inactivation (BgNaV1 [8]; BgNaV1, 1 µM): A shift in the midpoint of activation and in the voltage dependence of steady-state inactivation
V1/2 of activation (BgNaV1 [8]; BgNaV1, 1 µM toxin, control −38.1 ± 0.1, mean ± SEM, n ≥ 3): −45.8 ± 0.3 mV
non-inactivating current component of steady-state inactivation (BgNaV1 [8]; BgNaV1, 1 µM, mean ± SEM, n ≥ 3): 62.3 ± 3.2%
recovery from inactivation (NaV1.5 [9]): strongly enhanced the recovery from inactivation
recovery from inactivation, τ (NaV1.5 [9]; control τ = 50.2 ± 3.0 ms, mean ± SEM, n ≥ 3): 22.8 ± 3.2 ms
recovery from fast inactivation (BgNaV1 [10]): does not influence the recovery from fast inactivation
binding at neurotoxin site 1 (NaV1.5 [11]): does not bind at site 1
effect on peak amplitude after TTX (NaV1.5 [11]): additional reduction of the peak amplitude
slowing of inactivation after closed-state incubation (BgNaV1 [12]; 2 min at −90 mV without depolarizing pulses, then pulse to 0 mV): significant slowing down of inactivation
toxin interaction state (BgNaV1 [12]; closed state): toxin interaction with the channel in the closed state
reversal potential (NaV channels): No significant change in the reversal potential
signs after injection (mice; injected, ref [12]): pruritus, lacrimation, increased salivation, sweating and agitation followed by spastic paralysis of the limbs
toxicity after intracerebral injection (mice; intracerebral (i.c.), among the nine PhTx2 peptides, ref [13]): higher toxicity

NC1=N[C@H](O)[C@H]2[C@H]3O[C@]4(O)O[C@@H]([C@@H](O)[C@@]2(N1)[C@@H]4O)[C@]3(O)CO [tetrodotoxin (TTX), tetrodotoxin, reference compound]
decrease of the sodium current peak amplitude (NaV1.5 [11]): 50%

CssIV: β-scorpion toxin CssIV (from Centruroides suffusus suffusus)
competition with PnTx2-6 (PnTx2-6 binding site): does not compete with PnTx2-6
